Columns and labels:
Human A2AR = target: T1, Human A2AR (Homo sapiens, UniProt P29274); experiment: Human A2AR competition radioligand binding ([3H]-ZM241385, HeLa-A2A membranes); settings: for Ki: xlsx sheet A2AR_Displacement, read-out: Ki (A2AR) printed in column Displacement at 20 uM (%); for A2AR radioligand displacement at 20 µM (%): 20 µM compound, mean ± SEM of two technical replicates
T1 construct: expressed in transfected cells; host or cells: HeLa-A2A cell line (membranes prepared in house, lot A003/14-04-2019)
T1 sequence (P29274 whole entry): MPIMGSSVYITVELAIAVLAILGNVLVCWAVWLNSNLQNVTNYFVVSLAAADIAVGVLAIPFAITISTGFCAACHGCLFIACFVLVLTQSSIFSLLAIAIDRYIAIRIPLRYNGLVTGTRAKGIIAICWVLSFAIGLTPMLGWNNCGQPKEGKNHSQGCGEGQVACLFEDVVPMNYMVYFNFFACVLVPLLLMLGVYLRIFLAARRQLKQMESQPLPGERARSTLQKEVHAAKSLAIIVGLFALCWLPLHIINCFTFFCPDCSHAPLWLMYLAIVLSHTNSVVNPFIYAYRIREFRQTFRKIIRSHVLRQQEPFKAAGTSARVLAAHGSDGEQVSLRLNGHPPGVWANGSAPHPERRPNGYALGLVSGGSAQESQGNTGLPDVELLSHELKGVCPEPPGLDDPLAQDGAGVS
Method: (§1) Screening compounds (Supplementary Tables 10 and 12) were purchased from Enamine (compound purity >90%, which was confirmed by liquid chromatography−mass spectrometry and ^1H NMR spectroscopy for identified ligands; Supplementary Figs. 19–30). Human D2R competition binding experiments were carried out in polypropylene 96-well plates. Each well contained 20 µg of membranes from a CHO-D2R #S20 cell line (protein concentration of 4,322 µg ml^−1), 1.5 nM [^3H]-spiperone (54.3 Ci mmol^−1, 1 mCi ml^−1, PerkinElmer NET1187250UC) and the compound studied. Non-specific binding was determined in the presence of 10 µM sulpiride (Sigma Aldrich S8010). The reaction mixture (250 µl per well) was incubated at 25 °C for 120 min, after which 200 µl was transferred to a GF/C 96-well plate (Millipore) pretreated with 0.5% PEI and treated with binding buffer (50 mM Tris-HCl, 1 mM EDTA, 5 mM MgCl2, 5 mM KCl, 120 mM NaCl, pH 7.4). The reaction mixture was filtered and washed 4 times with 250 µl wash buffer (50 mM Tris-HCl, 0.9% NaCl, pH 7.4) before the addition of 30 μl Universol. The final measurement was performed in a microplate beta scintillation counter (Microbeta Trilux, PerkinElmer). Human A2AR competition binding experiments were carried out in a multiscreen GF/C 96-well plate (Millipore) pretreated with binding buffer (Tris-HCl 50 mM, EDTA 1 mM, MgCl2 10 mM, 2 U ml^−1 adenosine deaminase, pH 7.4). Each well was incubated with 5 μg of membranes from the HeLa-A2A cell line and prepared in our laboratory (lot A003/14-04-2019, protein concentration 2,058 μg ml^−1), 1 nM [^3H]-ZM241385 (50 Ci mmol^−1, 1 mCi ml^−1, ARC-ITISA 0884), and the compounds studied and standards. Non-specific binding was determined in the presence of NECA 50 μM (Sigma E2387). The reaction mixture (total volume of 200 μl per well) was incubated at 25 °C for 30 min, then filtered and washed 4 times with 250 μl wash buffer (Tris-HCl 50 mM, EDTA 1 mM, MgCl2 10 mM, pH 7.4), and measured in a microplate beta scintillation counter (Microbeta Trilux, PerkinElmer). Unless stated otherwise, three independent experiments were carried out to calculate Ki values.

Human D2R = target: T2, Human D2R (Homo sapiens, UniProt P14416); experiment: Human D2R competition radioligand binding ([3H]-spiperone, CHO-D2R #S20 membranes); settings: 10 µM compound, mean ± SEM of two technical replicates; for inhibition at 10 µM: 2 h, read-out: D2R radioligand displacement at 10 µM (%)
T2 construct: expressed in transfected cells
T2 sequence (P14416 whole entry): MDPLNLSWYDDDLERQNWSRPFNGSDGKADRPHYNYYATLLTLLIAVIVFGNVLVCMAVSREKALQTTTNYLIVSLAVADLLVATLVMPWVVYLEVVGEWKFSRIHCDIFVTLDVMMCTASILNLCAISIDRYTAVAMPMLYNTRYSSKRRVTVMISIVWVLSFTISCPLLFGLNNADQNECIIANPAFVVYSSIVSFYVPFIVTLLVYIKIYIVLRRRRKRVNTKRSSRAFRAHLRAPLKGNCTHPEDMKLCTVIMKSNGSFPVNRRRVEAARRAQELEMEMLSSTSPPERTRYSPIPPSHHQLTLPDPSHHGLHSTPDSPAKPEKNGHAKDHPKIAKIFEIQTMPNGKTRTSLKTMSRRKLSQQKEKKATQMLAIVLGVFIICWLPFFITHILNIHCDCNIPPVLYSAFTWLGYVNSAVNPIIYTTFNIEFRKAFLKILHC
Method: as §1

Ki (Human A2AR) [µM]	D2R radioligand displacement at 10 µM (%) (Human D2R)	inhibition at 10 µM (Human D2R) [%]	Compound	A2AR radioligand displacement at 20 µM (%) (Human A2AR)
2.5			Cc1cccc(CC(N)C(=O)Nc2nc3c(Br)cc(F)cc3[nH]2)c1 (stereo not shown) [Compound 3, Cc1cccc(c1)CC(C(=O)Nc2[nH]c3cc(cc(c3n2)Br)F)N]	
1.3			CCOC(=O)c1cccc2[nH]c(NC(=O)C(N)Cc3ccco3)nc12 (stereo not shown) [Compound 6, CCOC(=O)c1cccc2c1nc([nH]2)NC(=O)C(Cc3ccco3)N]	
	5 ± 3	5 ± 3	FC(F)(F)c1ccnc(N2CCN(C3CCC3)CC2)c1 [Z1348398263, c1cnc(cc1C(F)(F)F)N2CCN(CC2)C3CCC3]	
	10 ± 3	10 ± 3	OC(Cc1cccc(Cl)c1)CN1CCC=C(c2ccco2)C1 (stereo not shown) [Z2102774071, c1cc(cc(c1)Cl)CC(CN2CCC=C(C2)c3ccco3)O]	
			NC(=NCc1nc(-c2ccccc2)n[nH]1)Nc1ccccn1 [Z2518713795, c1ccc(cc1)c2nc([nH]n2)CN=C(N)Nc3ccccn3]	23±3
	7 ± 1	7 ± 1	Cn1cc(-c2ccc(CN3CC[C@@H](Oc4ccccc4)C3)s2)cn1 [Z2629646171, Cn1cc(cn1)c2ccc(s2)CN3CC[C@H](C3)Oc4ccccc4]	
	17 ± 4	17 ± 4	c1csc(CCN2CCC(Oc3ccc(C4CC4)cn3)C2)c1 (stereo not shown) [Z2694200197, c1cc(sc1)CCN2CCC(C2)Oc3ccc(cn3)C4CC4]	
	1 ± 1	1 ± 1	c1cnc(CCN2CCC(c3cn[nH]c3)CC2)cn1 [Z2833584438, c1cnc(cn1)CCN2CCC(CC2)c3c[nH]nc3]	
			O=C(Nc1ncccn1)C1CCN(CC(O)C2CCC2)CC1 (stereo not shown) [Z3292775568, c1cnc(nc1)NC(=O)C2CCN(CC2)CC(C3CCC3)O]	1±2
	5 ± 1	5 ± 1	Cc1[nH]cnc1CN1CCC(Oc2cc(F)cc(F)c2)C1 (stereo not shown) [Z3516846214, Cc1c(nc[nH]1)CN2CCC(C2)Oc3cc(cc(c3)F)F]	
	1 ± 1	1 ± 1	Cc1cc(CC(O)CN2CCc3c(ncn3C3CCC3)C2)ccc1F (stereo not shown) [Z3516919089, Cc1cc(ccc1F)CC(CN2CCc3c(ncn3C4CCC4)C2)O]	
			Cc1cc(NC(=O)c2cccn2CCN2CCOCC2)ns1 [Z3591989733, Cc1cc(ns1)NC(=O)c2cccn2CCN3CCOCC3]	19±1
	28 ± 1	28 ± 1	OC(CN1CCC(n2ncc3ccccc32)CC1)c1cccc(Cl)n1 (stereo not shown) [Z3651347041, c1ccc2c(c1)cnn2C3CCN(CC3)CC(c4cccc(n4)Cl)O]	
			CCc1ccc(CNCCc2c[nH]c3c(OC)cccc23)nc1 [Z3765568162, CCc1ccc(nc1)CNCCc2c[nH]c3c2cccc3OC]	16±4
	4 ± 1	4 ± 1	Clc1cccc(CCN2CC(c3ncnc4ccccc34)C2)c1 [Z3806926084, c1ccc2c(c1)c(ncn2)C3CN(C3)CCc4cccc(c4)Cl]	
			O=C(NCc1nccc(=O)[nH]1)C1CCCN1Cc1ccccc1 (stereo not shown) [Z4219981720, c1ccc(cc1)CN2CCCC2C(=O)NCc3[nH]c(=O)ccn3]	6±4
			O=c1[nH]c(NCC2CCN(CCc3ccccc3)C2)nc2ccsc12 (stereo not shown) [Z5332306614, c1ccc(cc1)CCN2CCC(C2)CNc3[nH]c(=O)c4c(n3)ccs4]	8±1
			CCc1ccnc(NCC2CN(Cc3ccccc3)CC2C)n1 (stereo not shown) [Z5471612810, CCc1ccnc(n1)NCC2CN(CC2C)Cc3ccccc3]	2±1
			Cc1nc(NC(=O)C(N)Cc2cccc(Br)n2)[nH]c1C (stereo not shown) [Z6382061841, Cc1c(nc([nH]1)NC(=O)C(Cc2cccc(n2)Br)N)C]	2±2
	3 ± 1	3 ± 1	Cc1ccccc1-n1cc(CNC2COc3ccccc3C2)cn1 (stereo not shown) [Z8185092078, Cc1ccccc1n2cc(cn2)CNC3Cc4ccccc4OC3]	
	6 ± 2	6 ± 2	Cc1cccc(CN[C@H]2C[C@H](Oc3ccccc3)C2)c1F [Z8185092308, Cc1c(c(ccc1)CN[C@H]2C[C@@H](C2)Oc3ccccc3)F]	
	4 ± 3	4 ± 3	Cc1ccc(C(O)CN2CCC3(Cc4ccccc4C3)C2)c(C)c1 (stereo not shown) [Z8185092353, Cc1ccc(c(c1)C)C(CN2CCC3(C2)Cc4ccccc4C3)O]	
	5 ± 3	5 ± 3	Fc1ccc(O[C@H]2CCN(Cc3cnc4ccc(Br)cn34)C2)cc1 [Z8185092492, c1cc(ccc1O[C@H]2CCN(C2)Cc3cnc4n3cc(cc4)Br)F]	
	4 ± 1	4 ± 1	Clc1cnn(CCN2CCC(OCc3ccc(Br)cc3)CC2)c1 [Z8185092665, c1cc(ccc1COC2CCN(CC2)CCn3cc(cn3)Cl)Br]	
	24 ± 1	24 ± 1	Clc1ccc(C2CN=C(NCc3cc(OC4CCC4)ccn3)N2)cc1 (stereo not shown) [Z8185092666, c1cc(ccc1C2CN=C(N2)NCc3cc(ccn3)OC4CCC4)Cl]	
	3 ± 1	3 ± 1	O[C@@H](CN1CCc2cc(Br)sc2C1)c1ccccc1F [Z8185092668, c1ccc(c(c1)[C@H](CN2CCc3cc(sc3C2)Br)O)F]	
	2 ± 1	2 ± 1	Fc1cccc2nc(CNCc3ccccc3-n3cccn3)sc12 [Z8185092672, c1ccc(c(c1)CNCc2nc3cccc(c3s2)F)n4cccn4]	
	2 ± 3	2 ± 3	CC(C)(C)c1c[nH]c(CN2CCC(Cc3nccs3)C2)n1 (stereo not shown) [Z8185092674, CC(C)(C)c1c[nH]c(n1)CN2CCC(C2)Cc3nccs3]	

Compound	Ki (Human A2AR) [µM]	D2R radioligand displacement at 10 µM (%) (Human D2R)	inhibition at 10 µM (Human D2R) [%]	A2AR radioligand displacement at 20 µM (%) (Human A2AR)
O=C(CN1CC[C@H](Oc2ccccc2)C1)c1c[nH]c2nc(Cl)ccc12 [Compound 4, c1ccc(cc1)O[C@H]2CCN(C2)CC(=O)c3c[nH]c4c3ccc(n4)Cl]	1.4			
c1ccc([C@H]2C[C@H](NCc3ccccc3-n3cccn3)C2)cc1 [Z1973963178, c1ccc(cc1)[C@H]2C[C@@H](C2)NCc3c(cccc3)n4nccc4]		1 ± 2	1 ± 2	
Fc1ccc([C@H]2C[C@H](NCc3cnn(-c4ccccc4)n3)C2)cc1 [Z2213086620, c1ccc(cc1)n2nc(cn2)CN[C@H]3C[C@@H](C3)c4ccc(cc4)F]		27 ± 1	27 ± 1	
c1ccc(NC2CCN(Cc3cccc4ncnn34)C2)cc1 (stereo not shown) [Z3310096494, c1ccc(cc1)NC2CCN(C2)Cc3cccc4n3ncn4]		1 ± 2	1 ± 2	
Clc1nc2c(cc1CN1CC[C@@H](Oc3ccccc3)C1)COCC2 [Z3529190238, c1ccc(cc1)O[C@@H]2CCN(C2)Cc3cc4c(nc3Cl)CCOC4]		1 ± 1	1 ± 1	
c1ccc(C2CC(NCc3cc4ncccc4[nH]3)C2)cc1 (stereo not shown) [Z3532611366, c1ccc(cc1)C2CC(C2)NCc3cc4c([nH]3)cccn4]		24 ± 1	24 ± 1	
Brc1ccn2c(CN[C@H]3C[C@H](Oc4ccccc4)C3)cnc2c1 [Z8185092056, c1ccc(cc1)O[C@H]2C[C@@H](C2)NCc3n4c(nc3)cc(cc4)Br]		2 ± 2	2 ± 2	
Cc1ccc(C2CC(NCCn3ncc4ccccc43)C2)cc1 (stereo not shown) [Z8185092514, Cc1ccc(cc1)C2CC(C2)NCCn3c4ccccc4cn3]		23 ± 1	23 ± 1	
Cc1ccc(CCN2C[C@@H]3CN(C(=O)c4cn5c(n4)CC(C)CC5)C[C@@H]3C2)cc1 (stereo partly shown) [Z8185092530, Cc1ccc(cc1)CCN2C[C@@H]3CN(C[C@@H]3C2)C(=O)c4cn5c(n4)CC(CC5)C]		1 ± 2	1 ± 2	
c1ccc(CC2CN(Cc3cc4ncccc4s3)C2)cc1 [Z8185092667, c1ccc(cc1)CC2CN(C2)Cc3cc4c(s3)cccn4]		12 ± 3	12 ± 3	
c1ccc(C2CN=C(NCCc3cn4c(n3)CCCC4)N2)cc1 (stereo not shown) [Z8185092671, c1ccc(cc1)C2CN=C(N2)NCCc3cn4c(n3)CCCC4]		5 ± 2	5 ± 2	

From article PMC12021657, “Rapid traversal of vast chemical space using machine learning-guided docking screens” (Nature Computational Science, 2025)
